Measurements: US20220257774A1, “AROMATIC AMINE AR AHD BET TARGETING PROTEIN DEGRADATION CHIMERA COMPOUND AND USE” (HINOVA PHARMACEUTICALS INC., priority 2019, published 2022)
Read-outs that look alike come from different tables or passages of the source.

Experiments:
LNCaP/AR cells = experiment: Inhibition of the proliferation of LNCap/AR cells (CCK-8); type: cell-based; conditions: LNCaP/AR cells, 6 days culture, CCK-8, read-out: LNCap/AR IC50
Procedure, shortened: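 Proliferation was read by CCK-8 (OD 450 nm, 1 h) after six days of compound exposure. Cells were seeded at 1000 per well overnight, then dosed in duplicate over nine 3-fold steps with a top final concentration of 10 μM in 0.1% DMSO; IC50 was fitted from inhibition curves.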

22RV1 cells = experiment: Inhibition of the proliferation of drug-resistant prostate cancer cell 22RV1 (CCK-8); type: cell-based; conditions: 22RV1 cells (enzalutamide-resistant), same method
Protocol: (1) Experimental materials and instruments: LNCaP/AR cell line and 22RV1 cell line (provided by Sichuan Kangcheng Biotechnology Co., Ltd.) Fetal bovine serum FBS (Gibco, Cat. No. 10099-141) 0.01M PBS (Biosharp, Cat. No. 162262) RIPM1640 medium (Hyclone, Cat. No. 308090.01) Penicillin-Streptomycin (Hyclone, Cat. No. SV30010) Cell counting kit-8 (Signalway Antibody, Cat. No. CP002) DMSO (Sigma, Cat. No. D5879) Centrifuge Tube, 15 ml (Excell Bio, Cat. No. CS015-0001) Cell Culture Dish, (Excell Bio, Cat. No. CS016-0128) 96-well cell culture plate (Corning, Cat. No. 3599) Microplate reader (Thermo Multiskan MK3 type)
a. Preparation of Buffer Cell culture medium: RIPM1640 medium, 10% FBS, 1% Pen Strep: PBS buffer: PBS powder was dissolved in 2 L of ultrapure water and sterilized. b. Experimental Procedures 1) LNCaP/AR cells were subcultured in cell culture media, and then the cells in good growth condition were seeded in a 96-well plate at 80 μL/well (1000 cells/well), and cultured overnight in a 37° C., 5% CO2 cell incubator. 2) The drug was prepared into a 10 mM stock solution with dimethyl sulfoxide (DMSO). Prior to use, the stock solution was diluted in a ratio of […] with DMSO, and then diluted at a 3-fold gradient to obtain 9 serial concentrations. Then, each concentration of compound was further diluted in a ratio of 1:200 with the culture medium (to ensure that the DMSO concentration in the culture system was 0.1%), and two wells were set for each concentration. 20 μL of the diluted compound solution was added to the well of the cell culture (with a final concentration of 10 μM, 3.3 μM, 1.1 μM . . . ), and then the plate was gently tapped to thoroughly mix. In addition, the experiment included 3 negative control wells only containing cells and 3 blank control wells only containing culture medium (6 wells were each added with DMSO diluted in a ratio of 1:200 with 20 μL of culture medium). c. Result Detection: 1) After culturing for 6 days, 10 μL of CCK-8 was added to each well, and the plate was further incubated for 1 h in a 37° C., 5% CO2 cell incubator. 2) The absorbance (OD value) was measured at 450 nm with a multifunctional microplate reader. 3) The data was analyzed by the Dose-response-inhibition equation in the software GraphPad Prism5, and the IC50 value was obtained. 2. Biological assay of the inhibition on the proliferation of other drug-resistant prostate cancer cells
The same test method was used to determine the inhibitory activity of the compound according to the present invention against drug-resistant prostate cancer cell 22RV1.

`Cc1ccc(-c2c(C)noc2C)cc1N(CC(C)OC1CN(c2cc3c(cc2F)C(=O)N(C2CCC(=O)NC2=O)C3=O)C1)c1ccc(C2(C#N)CC2)cc1` (stereo not drawn) [Compound 173, 1-(4-((5-(3,5-dimethylisoxazol-4-yl)-2-methylphenyl)(2-((1-(2-(2,6-dioxopiperidin-3-yl)-6-fluoro-1,3-dioxoisoindolin-5-yl)azacyclobutane-3-yl)oxy)propyl)amino)phenyl)cyclopropane-1-nitrile] was tested, and the IC50 (LNCaP/AR cells; 144 h) was 501 to 2000 nM and the IC50 (22RV1 cells; Homo sapiens) was 101 to 500 nM.

For `Cc1ccc(-c2c(C)noc2C)cc1N(C[C@H]1C[C@@H]1CNc1cc2c(cc1F)C(=O)N(C1CCC(=O)NC1=O)C2=O)c1ccc(C2(C#N)CC2)cc1` (stereo partly drawn) [Compound 181], the IC50 (LNCaP/AR cells; 144 h) was > 2000 nM and the IC50 (22RV1 cells; Homo sapiens) was 101 to 500 nM.

For `Cc1ccc(-c2c(C)noc2C)cc1N(c1ccc(C2(C#N)CC2)cc1)C1CN(C2CCC(Nc3cc4c(cc3F)C(=O)N(C3CCC(=O)NC3=O)C4=O)CC2)C1` (stereo not drawn) [Compound 73, 1-(4-((5-(3,5-dimethylisoxazol-4-yl)-2-methylphenyl)(1-((1s,4s)-4-((2-(2,6-dioxopiperidin-3-yl)-6-fluoro-1,3-dioxoisoindolin-5-yl)amino)cyclohexyl)azetidin-3-yl)amino)phenyl)cyclopropane-1-nitrile], the IC50 (LNCaP/AR cells) was > 2000 nM and the IC50 (22RV1 cells) was > 2000 nM.

With `Cc1ccc(-c2c(C)noc2C)cc1N(CCC1CN(c2cc3c(cc2F)C(=O)N(C2CCC(=O)NC2=O)C3=O)C1)c1ccc(C2(C#N)CC2)cc1` (stereo not drawn) [Compound 130, 1-(4-((5-(3,5-dimethylisoxazol-4-yl)-2-methylphenyl)(2-(1-(2-(2,6-dioxopiperidin-3-yl)-6-fluoro-1,3-dioxoisoindolin-5-yl)azetidin-3-yl)ethyl)amino)phenyl)cyclopropane-1-carbonitrile] the IC50 (LNCaP/AR cells) was 101 to 500 nM and the IC50 (22RV1 cells) was < 100 nM.

`Cc1ccc(-c2c(C)n[nH]c2C)cc1N(CCCCCOCC(=O)N[C@H](C(=O)N1C[C@H](O)C[C@H]1C(=O)N[C@@H](C)c1ccc(-c2scnc2C)cc1)C(C)(C)C)c1ccc(C#N)c(Cl)c1` [Compound 79, (2S,4R)-1-((S)-2-(2-((5-((3-chloro-4-cyanophenyl)(5-(3,5-dimethyl-1H-pyrazol-4-yl)-2-methylphenyl)amino)pentyl)oxy)acetylamino)-3,3-dimethylbutyryl)-4-hydroxy-N—((S)-1-(4-(4-methylthiazol-5-yl)phenyl)ethyl)pyrrolidinyl-2-formamide] was tested, and the IC50 (LNCaP/AR cells) was 101 to 500 nM and the IC50 (22RV1 cells) was > 2000 nM.

`Cc1ccc(-c2c(C)noc2C)cc1N(CC1CC2(C1)CN(c1cc3c(cc1F)C(=O)N(C1CCC(=O)NC1=O)C3)C2)c1ccc(C2(C#N)CC2)cc1` (stereo not drawn) [Compound 125, 1-(4-((5-(3,5-dimethylisoxazol-4-yl)-2-methylphenyl)((2-(2-(2-,2,6-dioxopiperidin-3-yl)-6-fluoro-1-oxoisoindolin-5-yl)-2-azaspiro[3.3]heptan-6-yl)methyl)amino)phenyl)cyclopropane-1-carbonitrile] gave an IC50 (LNCaP/AR cells; 144 h) of 501 to 2000 nM and an IC50 (22RV1 cells; Homo sapiens) of 501 to 2000 nM.

For `Cc1ccc(-c2c(C)noc2C)cc1N(CCC(C)CCNc1cc2c(cc1F)CN(C1CCC(=O)NC1=O)C2=O)c1ccc(C2(C#N)CC2)cc1` (stereo not drawn) [Compound 190, 1-(4-((5-(3,5-dimethylisoxazol-4-yl)-2-methylphenyl)(5-((2-(2,6-dioxopiperidin-3-yl)-6-fluoro-3-oxoisoindolin-5-yl)amino)-3-methylpentanyl)amino)phenyl)cyclopropane-1-carbonitrile], the IC50 (LNCaP/AR cells; 144 h) was > 2000 nM and the IC50 (22RV1 cells; Homo sapiens) was > 2000 nM.

`Cc1ccc(-c2c(C)noc2C)cc1N(CCCCNc1cc2c(cc1F)C(=O)N(C1CCC(=O)NC1=O)C2=O)c1ccc(C2(C#N)CC2)cc1` (stereo not drawn) [Compound 40] was tested, and the IC50 (LNCaP/AR cells; 144 h) was 501 to 2000 nM and the IC50 (22RV1 cells; Homo sapiens) was 101 to 500 nM.

With `Cc1ccc(-c2c(C)noc2C)cc1N(CC1CCC(Nc2cc3c(cc2F)C(=O)N(C2CCC(=O)NC2=O)C3)CC1)c1ccc(C2(C#N)CC2)cc1` (stereo not drawn) [Compound 115, 1-(4-((5-(3,5-Dimethylisoxazol-4-yl)-2-methylphenyl)((((1r,4r)-4-((2-(2,6-dioxopiperidin-3-yl)-6-fluoro-1-oxoisoindolin-5-yl)amino)cyclohexyl)methyl)amino)phenyl)cyclopropanecarbonitrile] the IC50 (LNCaP/AR cells) was 101 to 500 nM and the IC50 (22RV1 cells) was 501 to 2000 nM.

In the case of `Cc1ccc(-c2c(C)noc2C)cc1N(CC1CN(c2cc3c(cc2F)CN(C2CCC(=O)NC2=O)C3=O)C1)c1ccc(C2(C#N)CC2)cc1` (stereo not drawn) [Compound 155], the IC50 (LNCaP/AR cells; 144 h) is reported as > 2000 nM and the IC50 (22RV1 cells; Homo sapiens) is reported as > 2000 nM.

`Cc1ccc(-c2c(C)noc2C)cc1N(C[C@H]1C[C@@H]1CNc1ccc2c(c1)CN(C1CCC(=O)NC1=O)C2=O)c1ccc(C2(C#N)CC2)cc1` (stereo partly drawn) [Compound 187] was tested, and the IC50 (LNCaP/AR cells; 144 h) was > 2000 nM and the IC50 (22RV1 cells; Homo sapiens) was 501 to 2000 nM.

In the case of `Cc1ccc(-c2c(C)noc2C)cc1N(CC1CC2(C1)CN(c1cc3c(cc1F)CN(C1CCC(=O)NC1=O)C3=O)C2)c1ccc(C2(C#N)CC2)cc1` (stereo not drawn) [Compound 126, 1-(4-((5-(3,5-dimethylisoxazol-4-yl)-2-methylphenyl)((2-(2-(2-,2,6-dioxopiperidin-3-yl)-6-fluoro-3-oxoisoindolin-5-yl)-2-azaspiro[3.3]heptan-6-yl)methyl)amino)phenyl)cyclopropane-1-carbonitrile], the IC50 (LNCaP/AR cells) is reported as 501 to 2000 nM and the IC50 (22RV1 cells) is reported as > 2000 nM.

In the case of `Cc1ccc(-c2c(C)noc2C)cc1N(C[C@H]1C[C@@H]1CNc1cc2c(cc1F)C(=O)N(C1CCC(=O)NC1=O)C2)c1ccc(C2(C#N)CC2)cc1` (stereo partly drawn) [Compound 185], the IC50 (LNCaP/AR cells; 144 h) is reported as > 2000 nM and the IC50 (22RV1 cells; Homo sapiens) is reported as > 2000 nM.

With `CC(=O)O[C@@H]1C[C@@H](C(=O)N[C@@H](C)c2ccc(-c3scnc3C)cc2)N(C(=O)[C@@H](NC(=O)COCCCCCN(c2ccc(C#N)c(Cl)c2)c2cc(-c3c(C)n[nH]c3C)ccc2C)C(C)(C)C)C1` [Compound 80] the IC50 (LNCaP/AR cells) was 501 to 2000 nM and the IC50 (22RV1 cells) was > 2000 nM.

`Cc1ccc(-c2c(C)noc2C)cc1N(c1ccc(C2(C#N)CC2)cc1)C1CN(C2CC(Nc3cc4c(cc3F)C(=O)N([C@H]3CCC(=O)NC3=O)C4)C2)C1` (stereo partly drawn) [Compound 69, 1-(4-((5-(3,5-dimethylisoxazol-4-yl)-2-methylphenyl)(1-((1 s,3s)-3-((2-(2,6-dioxopiperidin-3-yl)-6-fluoro-1-oxoisoindolin-5-yl)amino)cyclobutyl)azetidin-3-yl)amino)phenyl)cyclopropane-1-nitrile] was tested, and the IC50 (LNCaP/AR cells) was > 2000 nM and the IC50 (22RV1 cells) was > 2000 nM.

With `Cc1ccc(-c2c(C)noc2C)cc1N(CC1CCN(c2cc3c(cc2F)C(=O)N(C2CCC(=O)NC2=O)C3=O)C1)c1ccc(C2(C#N)CC2)cc1` (stereo not drawn) [Compound 107] the IC50 (LNCaP/AR cells; 144 h) was > 2000 nM and the IC50 (22RV1 cells; Homo sapiens) was > 2000 nM.

In the case of `Cc1ccc(-c2c(C)noc2C)cc1N(CC1CN(C2CN(c3cc4c(cc3F)C(=O)N(C3CCC(=O)NC3=O)C4=O)C2)C1)c1ccc(C2(C#N)CC2)cc1` (stereo not drawn) [Compound 153], the IC50 (LNCaP/AR cells) is reported as < 100 nM and the IC50 (22RV1 cells) is reported as < 100 nM.

With `Cc1ccc(-c2c(C)noc2C)cc1N(CC1CC(Nc2cc3c(cc2F)CN(C2CCC(=O)NC2=O)C3=O)C1)c1ccc(C2(C#N)CC2)cc1` (stereo not drawn) [Compound 38] the IC50 (LNCaP/AR cells; 144 h) was > 2000 nM and the IC50 (22RV1 cells; Homo sapiens) was 501 to 2000 nM.

In the case of `Cc1ccc(-c2c(C)noc2C)cc1N(CC(C)OC1CN(c2cc3c(cc2F)CN(C2CCC(=O)NC2=O)C3=O)C1)c1ccc(C2(C#N)CC2)cc1` (stereo not drawn) [Compound 177], the IC50 (LNCaP/AR cells) is reported as < 100 nM and the IC50 (22RV1 cells) is reported as > 2000 nM.

`Cc1ccc(-c2c(C)noc2C)cc1N(CCCNc1cc2c(cc1F)CN(C1CCC(=O)NC1=O)C2=O)c1ccc(C2(C#N)CC2)cc1` (stereo not drawn) [Compound 175, 1-(4-((5-(3,5-dimethylisoxazol-4-yl)-2-methylphenyl)(3-((2-(2,6-dioxopiperidin-3-yl)-6-fluoro-3-oxoisoindolin-5-yl)amino)propyl)amino)phenyl)cyclopropane-1-nitrile] was tested, and the IC50 (LNCaP/AR cells; 144 h) was 501 to 2000 nM and the IC50 (22RV1 cells; Homo sapiens) was > 2000 nM.

With `Cc1ccc(-c2c(C)noc2C)cc1N(CC1CCN(C2CN(c3cc4c(cc3F)C(=O)N(C3CCC(=O)NC3=O)C4)C2)CC1)c1ccc(C2(C#N)CC2)cc1` (stereo not drawn) [Compound 160] the IC50 (LNCaP/AR cells; 144 h) was > 2000 nM and the IC50 (22RV1 cells; Homo sapiens) was < 100 nM.
